Ends that are not written are not given here.
Key:
[1] = test system: Gram-positive bacteria (S. aureus, S. epidermidis); assay: Geometric mean of MICs against Gram-positive bacteria; type: cell-based; design: unit not given here
Method in brief: (§1)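 Modified CLSI broth microdilution: mid-log bacteria from LB culture were adjusted to 1 × 10^6 CFU/mL and mixed 1:1 with peptide serially diluted in PBS. After 18 to 20 h at 37 °C, growth was read as absorbance at 600 nm.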

[2] = test system: human erythrocytes versus five bacterial strains; assay: Therapeutic index (MHC/GM of MIC)
Method in brief: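 MHC reflects hemolytic activity on erythrocytes, and GM is the geometric mean of the MIC values across the five strains. The TI is their ratio, and larger values denote greater antimicrobial specificity.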

[3] = test system: Klebsiella pneumonia (1.1736); type: cell-based, Klebsiella pneumoniae
Method in brief: (§2)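 Broth microdilution (modified CLSI): mid-log bacteria grown in LB at 37 °C were adjusted to 1 × 10^6 CFU/mL and mixed 1:1 with PBS-diluted peptide. After 18–20 h at 37 °C, absorbance was read at 600 nm.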

[4] = test system: Staphylococcus epidermidis (1.4260); type: cell-based
Method in brief: as §2

[5] = test system: Pseudomonas aeruginosa (1.2421); type: cell-based
Method in brief: as §2

[6] = test system: Staphylococcus aureus (1.8721); type: cell-based
Method in brief: as §2

[7] = test system: S. aureus; assay: Membrane damage, PI staining and flow cytometry; type: cell-based, Staphylococcus aureus; details: 6.25 μM peptide, 30 min
Method: Propidium iodide (PI) was utilized as a marker for assessing the structural integrity of cell membranes and the occurrence of cell death. The impact of peptides on BEAS-2B cells, E. coli, and S. aureus was investigated by treating the cells with peptides followed by PI staining and flow cytometry (FACS) analysis to evaluate peptide-induced membrane damage. Table 5 presents the results of PI staining in BEAS-2B cells (1 × 10^6) following treatment with peptides at a concentration of 6.25 μM. […] FACS analysis at a peptide concentration of 6.25 μM was employed to determine the membrane damage caused by peptides in E. coli and S. aureus cells (Table 5).
Peptide-induced membrane damage was evaluated by quantifying the influx of propidium iodide (PI). BEAS-2B cells (1 × 10^6 cells in 50 μL) were exposed to a final concentration of 6.25 μM peptide and incubated at 37 °C for 30 min, followed by PBS washing and re-suspension in PI solution (dissolved in PBS) at a final concentration of 2 μg/mL. Bacteria were cultured to mid-log phase at 37 °C, then diluted to an OD600 of 0.5 in phosphate-buffered saline (PBS). […] The bacteria were harvested and re-suspended in PI solution, with fluorescence signal analysis conducted using flow cytometry (Cytomics FC 500, Beckman Coulter, Indianapolis, IN, USA).

[8] = test system: Gram-negative bacteria (E. coli, P. aeruginosa, K. pneumoniae); assay: Geometric mean of MICs against Gram-negative bacteria; type: cell-based; design: unit not given here
Method in brief: as §1

[9] = test system: five bacterial strains; assay: MICs against all five bacterial strains (geometric mean, range); type: cell-based; design: unit not given here; details: geometric mean of MICs against all five bacterial strains
Method in brief: as §1

[10] = CD spectra, secondary structure by BeStSel; type: physicochemical; details: 30 μM SDS as printed, 100 μM peptide, 25 °C
Method in brief: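 Far-UV CD spectra (190–250 nm) of peptides at 100 μM in SDS, 0.1 cm cells, 25 °C under nitrogen. Secondary-structure content derived from spectra by BeStSel deconvolution.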

LKRVWKRVFKLKKRYWRQLKKPVR-NH2 [SAAP-7]
GM to G+ [1]: 35.36
Fold (TI of analogue compared with SAAP-148) ([2]; TI change relative to SAAP-148): 55.09
TI (MHC/MIC) ([2]; ratio of MHC to geometric mean of MIC (five strains)): 6.06
MIC K. pneumoniae [3]: 100.00 µM
MIC S. epidermidis [4]: 12.50 µM
MIC P. aeruginosa [5]: 3.13 µM
MIC S. aureus [6]: 100.00 µM
percentage of PI-positive cells, S. aureus [7]: 21.1%
GM to G− [8]: 9.93
MIC (GM) [9]: 16.49
Others [10]: 3.4%
Turn [10]: 0%
α-Helix [10]: 48.3%
β-Antiparallel [10]: 48.3%
β-Parallel [10]: 0%

From article PMC11546786, “Designing Analogs of SAAP-148 with Enhanced Antimicrobial and Anti-LPS Activities” (International Journal of Molecular Sciences, 2024)
